Laboratory results published in the NIST ThermoML archive (doi:10.1016/j.fluid.2012.11.013).

Settings: Liquid, Vibrating tube method

CCC(C)(C)C [2,2-dimethylbutane]
mass density [kg/m3]
Settings | 283.15 K | 288.15 K | 293.15 K | 298.15 K | 303.15 K | 308.15 K | 313.15 K | 318.15 K | 323.15 K | 328.15 K
100 kPa | 658.57 | 653.96 | 649.25 | 644.46 | 639.75 | 634.86 | 630.04 | 625.06 | 620.03 | –
2000 kPa | 660.76 | 656.25 | 651.6 | 646.95 | 642.26 | 637.48 | 632.76 | 627.98 | 623.17 | 618.2
5000 kPa | 664.07 | 659.62 | 655.12 | 650.7 | 646.07 | 641.54 | 637.06 | 632.33 | 627.74 | 623.02
7000 kPa | 666.19 | 661.74 | 657.45 | 653.04 | 648.58 | 644.04 | 639.66 | 635.14 | 630.61 | 626.02
10000 kPa | 669.19 | 664.88 | 660.66 | 656.38 | 652.04 | 647.69 | 643.44 | 639.02 | 634.54 | 630.26
20000 kPa | 678.5 | 674.51 | 670.51 | 666.62 | 662.53 | 658.58 | 654.67 | 650.69 | 646.65 | 642.58
30000 kPa | 686.83 | 683.05 | 679.25 | 675.66 | 671.8 | 668.08 | 664.53 | 660.78 | 656.94 | 653.14
40000 kPa | 694.31 | 690.77 | 687.12 | 683.71 | 680.03 | 676.55 | 673.1 | 669.72 | 666.02 | 662.51
50000 kPa | 701.27 | 697.81 | 694.34 | 691.09 | 687.56 | 684.38 | 680.94 | 677.73 | 674.2 | 670.88
60000 kPa | 707.71 | 704.32 | 701.07 | 697.88 | 694.57 | 691.41 | 688.22 | 685.05 | 681.7 | 678.64
65000 kPa | 710.76 | 707.61 | 704.25 | 701.14 | 697.92 | 695.23 | 691.61 | 688.58 | 685.35 | 682.59
